Reference: patent US10434112B2, “Use of agonists of formyl peptide receptor 2 for treating dermatological diseases” (Allergan, Inc., priority 2013, dated 2019)
pEC50: −log10 of the molar value.

Molecular target: human FPR2 receptor (Homo sapiens (Human), UniProt P25090)
Assay: FLIPR Ca+2 response in HEK-Gα16 cells stably expressing the human FPR2 receptor
Assay type: cell-based
Design: FPR2 (% eff): unit not given here
Settings: Table 4; for FPR2 (% eff): value in brackets, given mostly as fraction
Protocol: FLIPR: HEK-Gα16 cells stably expressing the human FPR2 receptor was utilized. Cells were plated into 384-well poly-D-lysine coated plates at a density of 18,000 cells per well one day prior to use. The growth media was DMEM medium supplemented with 10% fetal bovine serum (FBS), 1% antibiotic-antimycotic, 50 μg/ml hygromycin, and 400 μg/ml geneticin. On the day of the experiment, the cells were washed twice with Hank's Balanced Salt Solution supplemented with 20 mM HEPES (HBSS/hepes buffer). The cells were then dye loaded with 2 μM Fluo-4 diluted in the HBSS/Hepes buffer and incubated at 37° C. for 40 minutes. Extracellular dye was removed by washing the cell plates four times prior to placing the plates in the FLIPR (Fluorometric Imaging Plate Reader, Molecular Devices). Ligands were diluted in HBSS/Hepes buffer and prepared in 384-well microplates. Data for Ca^+2 responses were obtained in relative fluorescence units.

Chain of human FPR2 receptor (P25090 whole entry): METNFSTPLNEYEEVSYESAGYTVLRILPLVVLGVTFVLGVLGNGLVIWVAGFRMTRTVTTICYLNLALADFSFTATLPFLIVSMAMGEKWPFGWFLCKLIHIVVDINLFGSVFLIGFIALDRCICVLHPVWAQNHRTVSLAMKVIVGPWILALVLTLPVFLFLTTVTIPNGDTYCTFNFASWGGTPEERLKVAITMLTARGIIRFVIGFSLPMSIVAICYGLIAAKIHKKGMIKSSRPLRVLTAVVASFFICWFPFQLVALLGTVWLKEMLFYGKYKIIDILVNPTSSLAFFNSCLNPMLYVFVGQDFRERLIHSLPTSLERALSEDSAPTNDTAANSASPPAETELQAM

Row | FPR2 (% eff) | pEC50 | Compound
1 | 1.00 | – | CSc1ccc(NC(=O)Nc2ccc3c(c2)C(=O)N(CCCN)C(C)C3)cc1 (stereo not shown) [Compound 42, 1-[2-(3-aminopropyl)-3-methyl-1-oxo-1,2,3,4-tetrahydroisoquinolin-7-yl]-3-[4-(methylsulfanyl)phenyl]urea]
2 | 0.94 | – | N#Cc1ccc(C2Cc3ccc(NC(=O)Nc4ccc(I)cc4)cc3C(=O)N2CCCN)cc1 (stereo not shown) [Compound 43, 1-[2-(3-aminopropyl)-3-(4-cyanophenyl)-1-oxo-1,2,3,4-tetrahydroisoquinolin-7-yl]-3-(4-iodophenyl)urea]
3 | 1.0 | – | CNC(=O)C1C(C(=O)Nc2ccc(Br)cc2)C2CCC1C21CC1 (stereo not shown) [Compound 46, N-(4-bromophenyl)-N′-methylspiro[bicyclo[2.2.1]heptane-7,1′-cyclopropane]-2,3-dicarboxamide]
4 | 1.0 | – | CCNC(=O)C1C(C(=O)Nc2ccc(Br)cc2)C2CCC1C21CC1 (stereo not shown) [Compound 47, N-(4-bromophenyl)-N′-ethylspiro[bicyclo[2.2.1]heptane-7,1′-cyclopropane]-2,3-dicarboxamide]
5 | 1.0 | – | CC(C)NC(=O)C1C(C(=O)Nc2ccc(Br)cc2)C2CCC1C21CC1 (stereo not shown) [Compound 48, N-(4-bromophenyl)-N′-(propan-2-yl)spiro[bicyclo[2.2.1]heptane-7,1′-cyclopropane]-2,3-dicarboxamide]
6 | 0.98 | – | CCC1(CC)NC(=O)N(NC(=O)Nc2ccc(Br)cc2)C1=O [Compound 49, 1-(4-bromophenyl)-3-(4,4-diethyl-2,5-dioxoimidazolidin-1-yl)urea]
7 | 1.0 | – | CCC1(CC)NC(=O)N(NC(=O)Nc2ccc(Br)cc2F)C1=O [Compound 50, 1-(4-bromo-2-fluorophenyl)-3-(4,4-diethyl-2,5-dioxoimidazolidin-1-yl)urea]
8 | 1.0 | – | O=C(Nc1ccc(Br)cc1)NN1C(=O)NC2(CCCCC2)C1=O [Compound 52, 1-(4-bromophenyl)-3-(2,4-dioxo-1,3-diazaspiro[4.5]dec-3-yl)urea]
9 | 0.99 | – | O=C(O)CNC(=O)[C@H](Cc1ccccc1)NC(=O)Nc1ccc(Br)cc1 [Compound 55, {[(2S)-2-{[(4-bromophenyl)carbamoyl]amino}-3-phenylpropanoyl]amino} acetic acid]
10 | 0.98 | – | O=C(O)CCNC(=O)[C@H](Cc1ccccc1)NC(=O)Nc1ccc(Br)cc1 [Compound 56, 3-{[(2S)-2-{[(4-bromophenyl)carbamoyl]amino}-3-phenylpropanoyl]amino} propanoic acid]
11 | 0.86 | – | O=C(Nc1ccc(Br)cc1)N[C@@H](Cc1ccccc1)C(=O)NCCO [Compound 58, (2S)-2-{[(4-bromophenyl)carbamoyl]amino}-N-(2-hydroxyethyl)-3-phenylpropanamide]
12 | 0.95 | – | CC[C@H](C)[C@H](NC(=O)Nc1ccc(Br)cc1F)C(=O)NCC(=O)O [Compound 59, {[(2S,3S)-2-{[(4-bromo-2-fluorophenyl)carbamoyl]amino}-3-methylpentanoyl]amino} acetic acid]
13 | 0.91 | – | CC[C@H](C)[C@H](NC(=O)Nc1ccc(Br)cc1)C(=O)NCC(N)=O [Compound 60, (2S,3S)-N-(2-amino-2-oxoethyl)-2-{[(4-bromophenyl)carbamoyl]amino}-3-methylpentanamide]
14 | 0.97 | – | CCC1(C(C)C)NC(=O)N(NC(=O)Nc2ccc(Br)cc2F)C1=O (stereo not shown) [Compound 61, 1-(4-bromo-2-fluorophenyl)-3-[4-ethyl-2,5-dioxo-4-(propan-2-yl)imidazolidin-1-yl]urea]
15 | 100 | 7.99 | CC[C@H](C)[C@H](NC(=O)Nc1ccc(Br)cc1F)C(=O)NCC(N)=O [Compound 62, (2S,3S)-N-(2-amino-2-oxoethyl)-2-{[(4-bromo-2-fluorophenyl)carbamoyl]amino}-3-methylpentanamide]
16 | 0.97 | – | CC[C@H](C)[C@H](NC(=O)Nc1ccc(Br)cc1)C(=O)NCC(C)=O [Compound 63, (2S,3S)-2-{[(4-bromophenyl)carbamoyl]amino}-3-methyl-N-(2-oxopropyl)pentanamide]
17 | 1.0 | – | CC(C)C1(C(C)C)NC(=O)N(NC(=O)Nc2ccc(Br)cc2)C1=O [Compound 64, 1-(4-bromophenyl)-3-[2,5-dioxo-4,4-di(propan-2-yl)imidazolidin-1-yl]urea]
18 | 1.0 | – | O=C(Nc1ccc(Br)cc1)NN1C(=O)NC(C2CC2)(C2CC2)C1=O [Compound 65, 1-(4-bromophenyl)-3-(4,4-dicyclopropyl-2,5-dioxoimidazolidin-1-yl)urea]
19 | 0.94 | 7.91 | CC(=O)CNC(=O)[C@H](Cc1ccccc1)NC(=O)Nc1ccc(Br)cc1F [Compound 68, (2S)-2-{[(4-bromo-2-fluorophenyl)carbamoyl]amino}-N-(2-oxopropyl)-3-phenylpropanamide]

Row | FPR2 (% eff) | pEC50 | Compound
20 | 0.91 | – | CCC1(CCc2ccccc2)NC(=O)N(NC(=O)Nc2ccc(Br)cc2F)C1=O (stereo not shown) [Compound 69, 1-(4-bromo-2-fluorophenyl)-3-[4-ethyl-2,5-dioxo-4-(2-phenylethyl)imidazolidin-1-yl]urea]
21 | 1.0 | – | CCC[C@H](NC(=O)Nc1ccc(Br)cc1)C(=O)O [Compound 70, (2S)-2-{[(4-bromophenyl)carbamoyl]amino}pentanoic acid]
22 | 0.98 | 7.81 | O=C(Nc1ccc(Br)cc1F)N[C@@H](Cc1ccccc1)C(=O)NCCO [Compound 71, (2S)-2-{[(4-bromo-2-fluorophenyl)carbamoyl]amino}-N-(2-hydroxyethyl)-3-phenylpropanamide]
23 | 0.86 | – | CCC[C@H](NC(=O)Nc1ccc(Br)cc1)C(=O)NCC(=O)OC [Compound 72, methyl {[(2S)-2-{[(4-bromophenyl)carbamoyl]amino}pentanoyl]amino}acetate]
24 | 1.0 | – | CCC[C@H](NC(=O)Nc1ccc(Br)cc1)C(=O)NCC(=O)OC(C)C [Compound 73, propan-2-yl {[(2S)-2-{[(4-bromophenyl)carbamoyl]amino}pentanoyl]amino}acetate]
25 | 0.91 | – | CCC[C@H](NC(=O)Nc1ccc(Br)cc1F)C(=O)NCC(=O)O [Compound 74, {[(2S)-2-{[(4-bromo-2-fluorophenyl)carbamoyl]amino}pentanoyl]amino}acetic acid]
26 | 0.76 | – | CC(C)C[C@H](NC(=O)Nc1ccc(Br)cc1)C(=O)NCCO [Compound 75, (2S)-2-{[(4-bromophenyl)carbamoyl]amino}-N-(2-hydroxyethyl)-4-methylpentanamide]
27 | 0.99 | – | CC1(CCc2ccco2)NC(=O)N(NC(=O)Nc2ccc(Br)cc2)C1=O (stereo not shown) [Compound 76, 1-(4-bromophenyl)-3-{4-[2-(furan-2-yl)ethyl]-4-methyl-2,5-dioxoimidazolidin-1-yl}urea]
28 | 1.0 | 8.96 | CC(C)C[C@H](NC(=O)Nc1ccc(Br)cc1)C(=O)NCC(N)=O [Compound 77, (2S)-N-(2-amino-2-oxoethyl)-2-{[(4-bromophenyl)carbamoyl]amino}-4-methylpentanamide]
29 | 0.82 | – | CC(=O)CNC(=O)[C@H](CC(C)C)NC(=O)Nc1ccc(Br)cc1 [Compound 78, (2S)-2-{[(4-bromophenyl)carbamoyl]amino}-4-methyl-N-(2-oxopropyl)pentanamide]
30 | 0.97 | – | CCC[C@H](NC(=O)Nc1ccc(Br)cc1)C(=O)NCC(N)=O [Compound 79, (2S)-N-(2-amino-2-oxoethyl)-2-{[(4-bromophenyl)carbamoyl]amino}pentanamide]
31 | 99 | 7.84 | CC1(CCc2ccccc2F)NC(=O)N(NC(=O)Nc2ccc(Br)cc2)C1=O (stereo not shown) [Compound 80, 1-(4-bromophenyl)-3-{4-[2-(2-fluorophenyl)ethyl]-4-methyl-2,5-dioxoimidazolidin-1-yl}urea]
32 | 0.96 | – | CCC[C@H](NC(=O)Nc1ccc(Br)cc1F)C(=O)NCC(N)=O [Compound 81, (2S)-N-(2-amino-2-oxoethyl)-2-{[(4-bromo-2-fluorophenyl)carbamoyl]amino} pentanamide]
33 | 1.0 | – | CC1(CCc2ccc(F)cc2)NC(=O)N(NC(=O)Nc2ccc(Br)cc2)C1=O (stereo not shown) [Compound 82, 1-(4-bromophenyl)-3-{4-[2-(4-fluorophenyl)ethyl]-4-methyl-2,5-dioxoimidazolidin-1-yl}urea]
34 | 1.0 | – | CC1(CCc2cccc(F)c2)NC(=O)N(NC(=O)Nc2ccc(Br)cc2)C1=O (stereo not shown) [Compound 83, 1-(4-bromophenyl)-3-{4-[2-(3-fluorophenyl)ethyl]-4-methyl-2,5-dioxoimidazolidin-1-yl}urea]
35 | 0.95 | – | CC(C)C[C@H](NC(=O)Nc1ccc(Br)cc1F)C(=O)NCC(N)=O [Compound 84, (2S)-N-(2-amino-2-oxoethyl)-2-{[(4-bromo-2-fluorophenyl)carbamoyl]amino}-4-methylpentanamide]
36 | 0.99 | – | CC(=O)CNC(=O)[C@H](CC(C)C)NC(=O)Nc1ccc(Br)cc1F [Compound 85, (2S)-2-{[(4-bromo-2-fluorophenyl)carbamoyl]amino}-4-methyl-N-(2-oxopropyl)pentanamide]
37 | 1.0 | – | CC1(CCc2ccc(O)cc2)NC(=O)N(NC(=O)Nc2ccc(Br)cc2)C1=O (stereo not shown) [Compound 86, 1-(4-bromophenyl)-3-{4-[2-(4-hydroxyphenyl)ethyl]-4-methyl-2,5-dioxoimidazolidin-1-yl}urea]
38 | 0.95 | – | CC(C)C[C@H](NC(=O)Nc1ccc(Br)cc1F)C(=O)N[C@@H](C)C(=O)O [Compound 87, (2S)-2-{[(2S)-2-{[(4-bromo-2-fluorophenyl)carbamoyl]amino}-4-methylpentanoyl]amino}propanoic acid]
